Test results: article PMC5911580, “YL143, a novel mutant selective irreversible EGFR inhibitor, overcomes EGFR^L858R, T790M‐mutant resistance in vitro and in vivo” (Cancer Medicine, 2018)
Read-outs that look alike come from different tables or passages of the source.

Key:
[1] = cited from earlier work; for median progression-free survival (PFS): patients with NSCLC with EGFR^L858R or EGFR^del19, improved from 4.6
[2] = test system: HCC827 (EGFR^del 19) cells; test: CCK-8 cell growth assay, HCC827; format: cell-based; settings: Homo sapiens, read-out: antiproliferative IC50 HCC827
Procedure: (§1) Cells were seeded into 96‐well plates at a density of 1500~3000/well in complete medium overnight. Then, cells were treated with various concentrations (0.01~1000 nmol/L) of YL143 for additional 3 days. Viable cell numbers were determined by Cell Counting Kit 8 (CCK8, CK04, Dojindo Laboratories, Japan). Each assay consisted of three replicate wells and repeated at least three times. […] Each IC50 value was expressed as mean ± SD.

IGF1R = IGF1R (Homo sapiens, UniProt P08069); test: FRET-based Z'-Lyte kinase assay, IGF1R; format: biochemical; settings: AV ± SD; 1.5 h incubation
Chain of IGF1R (P08069 31-1367, species assumed): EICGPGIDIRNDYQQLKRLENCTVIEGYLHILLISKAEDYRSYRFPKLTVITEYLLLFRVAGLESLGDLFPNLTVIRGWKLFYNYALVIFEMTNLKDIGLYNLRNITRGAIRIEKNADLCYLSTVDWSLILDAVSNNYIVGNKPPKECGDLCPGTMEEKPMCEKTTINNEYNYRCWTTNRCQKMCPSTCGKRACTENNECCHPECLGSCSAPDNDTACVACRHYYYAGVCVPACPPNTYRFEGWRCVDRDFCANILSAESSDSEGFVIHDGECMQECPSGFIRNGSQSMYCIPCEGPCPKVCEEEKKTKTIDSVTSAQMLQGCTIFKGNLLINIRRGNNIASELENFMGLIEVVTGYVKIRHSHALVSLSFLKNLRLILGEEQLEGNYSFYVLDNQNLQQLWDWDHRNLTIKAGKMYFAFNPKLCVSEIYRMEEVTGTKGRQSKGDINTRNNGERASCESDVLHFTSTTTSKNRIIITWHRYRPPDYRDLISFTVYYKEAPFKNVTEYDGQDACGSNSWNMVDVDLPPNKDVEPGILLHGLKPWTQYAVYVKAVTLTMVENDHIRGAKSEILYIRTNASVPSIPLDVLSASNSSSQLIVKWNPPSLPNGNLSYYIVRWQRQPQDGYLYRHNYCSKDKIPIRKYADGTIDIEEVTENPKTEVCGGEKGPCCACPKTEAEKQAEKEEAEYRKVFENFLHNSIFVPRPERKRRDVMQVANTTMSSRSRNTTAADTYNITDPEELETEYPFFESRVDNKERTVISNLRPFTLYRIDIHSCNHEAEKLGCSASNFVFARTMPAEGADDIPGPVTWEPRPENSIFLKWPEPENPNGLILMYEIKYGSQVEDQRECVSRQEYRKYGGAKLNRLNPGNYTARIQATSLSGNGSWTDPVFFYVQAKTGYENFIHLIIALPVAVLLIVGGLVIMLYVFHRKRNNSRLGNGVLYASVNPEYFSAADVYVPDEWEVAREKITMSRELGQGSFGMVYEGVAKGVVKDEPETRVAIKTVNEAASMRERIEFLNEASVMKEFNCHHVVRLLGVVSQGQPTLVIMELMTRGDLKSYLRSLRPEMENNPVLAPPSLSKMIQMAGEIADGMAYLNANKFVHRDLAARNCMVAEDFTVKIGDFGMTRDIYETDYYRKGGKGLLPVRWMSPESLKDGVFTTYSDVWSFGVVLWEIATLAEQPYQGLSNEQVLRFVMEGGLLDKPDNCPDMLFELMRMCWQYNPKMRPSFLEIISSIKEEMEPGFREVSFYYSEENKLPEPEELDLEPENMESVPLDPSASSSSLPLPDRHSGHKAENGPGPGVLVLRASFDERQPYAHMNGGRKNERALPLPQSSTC
Procedure: (§2) The kinase activity assay was performed and optimized according to the instructions of Z’‐LYTE™ kinase assay kits from the manufacturer (PV4879, Life, America). In our experiments, 10 concentration gradients from 0.01 nmol/L to 1.0 μmol/L were used for all the compounds.

A431 (EGFR^WT) cells = test: CCK-8 cell growth assay, A431; format: cell-based; settings: Homo sapiens, read-out: antiproliferative IC50 A431
Procedure: as §1

BaF3 = test: CCK-8 assay, BaF3 cells; format: cell-based; settings: Mus musculus, AV±SD, read-out: anti-proliferative activity BaF3
Procedure: as §1
(§3) The anti-proliferative activities of the compounds were evaluated using CCK-8 assay. The data were means from at least four independent experiments.

[3] = test system: H1975 (EGFR^L858R/T790M) cells; test: CCK-8 cell growth assay, H1975; format: cell-based; settings: Homo sapiens, read-out: antiproliferative IC50 H1975
Procedure: as §1

IR = IR (Homo sapiens, UniProt P06213); test: FRET-based Z'-Lyte kinase assay, IR; format: biochemical; settings: AV ± SD; 1.5 h incubation
Chain of IR (P06213 28-1382): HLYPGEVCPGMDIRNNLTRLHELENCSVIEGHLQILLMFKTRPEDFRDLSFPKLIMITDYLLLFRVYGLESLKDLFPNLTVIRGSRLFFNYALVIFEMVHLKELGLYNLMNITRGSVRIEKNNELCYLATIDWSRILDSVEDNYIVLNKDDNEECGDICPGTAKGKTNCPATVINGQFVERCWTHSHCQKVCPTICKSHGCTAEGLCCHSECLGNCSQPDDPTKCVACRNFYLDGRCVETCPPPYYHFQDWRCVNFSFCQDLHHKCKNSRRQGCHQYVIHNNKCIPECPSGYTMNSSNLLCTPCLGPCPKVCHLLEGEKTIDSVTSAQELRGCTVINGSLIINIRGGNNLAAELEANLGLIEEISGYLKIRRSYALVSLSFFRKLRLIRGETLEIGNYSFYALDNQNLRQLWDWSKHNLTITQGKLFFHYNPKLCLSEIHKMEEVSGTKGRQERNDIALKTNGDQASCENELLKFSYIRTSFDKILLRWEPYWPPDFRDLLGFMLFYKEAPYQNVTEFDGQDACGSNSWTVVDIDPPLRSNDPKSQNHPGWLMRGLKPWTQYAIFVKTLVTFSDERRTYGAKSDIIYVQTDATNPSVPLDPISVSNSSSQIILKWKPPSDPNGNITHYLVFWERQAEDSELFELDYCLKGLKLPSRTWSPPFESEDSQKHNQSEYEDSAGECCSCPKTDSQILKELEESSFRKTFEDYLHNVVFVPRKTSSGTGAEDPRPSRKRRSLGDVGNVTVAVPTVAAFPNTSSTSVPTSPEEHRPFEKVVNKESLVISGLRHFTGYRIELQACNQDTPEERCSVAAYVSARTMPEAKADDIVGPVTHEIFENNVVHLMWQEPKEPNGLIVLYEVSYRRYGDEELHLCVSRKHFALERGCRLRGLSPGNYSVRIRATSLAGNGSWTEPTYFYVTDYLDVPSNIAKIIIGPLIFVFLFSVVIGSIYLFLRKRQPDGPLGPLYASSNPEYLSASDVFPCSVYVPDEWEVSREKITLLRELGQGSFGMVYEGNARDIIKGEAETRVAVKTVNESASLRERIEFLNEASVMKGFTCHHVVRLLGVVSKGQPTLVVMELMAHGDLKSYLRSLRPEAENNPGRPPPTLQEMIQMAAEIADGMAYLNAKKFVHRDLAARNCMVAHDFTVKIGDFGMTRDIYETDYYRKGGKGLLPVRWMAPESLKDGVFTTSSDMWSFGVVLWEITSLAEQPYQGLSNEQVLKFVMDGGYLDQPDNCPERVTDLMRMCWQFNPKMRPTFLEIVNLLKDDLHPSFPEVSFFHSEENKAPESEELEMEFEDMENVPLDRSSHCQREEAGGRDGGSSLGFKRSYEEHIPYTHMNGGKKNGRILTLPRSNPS
Procedure: as §2

A549 (EGFR^WT) cells = test: CCK-8 cell growth assay, A549; format: cell-based; settings: Homo sapiens, read-out: antiproliferative IC50 A549
Procedure: as §1

[4] = cited from earlier work
BaF3-EGFR ^L858R = test: CCK-8 assay, BaF3-EGFR L858R stable cells; format: cell-based; settings: Ba/F3 EGFR-L858R, read-out: anti-proliferative activity BaF3-EGFR L858R
Procedure: as §1, §3

## C#Cc1cccc(Nc2ncnc3cc(OCCOC)c(OCCOC)cc23)c1 [erlotinib]
[1]
  median progression-free survival (PFS): 13.1 months

## C=CC(=O)Nc1cccc(Nc2nc(Nc3ccc(N4CCN(C(C)=O)CC4)cc3OC)ncc2C(F)(F)F)c1 [CO1686, Rociletinib]
[2]; HCC827, CCK-8, 72 h, AV ± SD
  IC50: 67.2 ± 19.5 nM
IGF1R
  IC50: 47.5 ± 8.4 nM
A431 (EGFR^WT) cells; A-431, CCK-8, 72 h
  IC50: > 1000 nM
BaF3
  IC50: 2.34 ± 1.66 µM
[3]; NCI-H1975, CCK-8, 72 h, AV ± SD
  IC50: 41.8 ± 25.1 nM
IR
  IC50: 12.8 ± 0.8 nM
A549 (EGFR^WT) cells; A549, CCK-8, 72 h
  IC50: > 1000 nM
[4]; clinical investigation
  hyperglycemia: about 40 % patients
[4]; patients, clinical study
  hyperglycemia: 47%
BaF3-EGFR ^L858R; CCK-8, AV±SD
  IC50: 69 ± 48 nM

## C=CC(=O)Nc1cc(Nc2nccc(-c3cn(C)c4ccccc34)n2)c(OC)cc1N(C)CCN(C)C [AZD9291, Osimertinib]
[2]; HCC827, 72 h
  IC50: 3.9 ± 3.5 nM
IGF1R
  IC50: 277 nM
A431 (EGFR^WT) cells; A-431, 72 h
  IC50: […]
BaF3
  IC50: 6.17 ± 2.98 µM
[3]; NCI-H1975, 72 h
  IC50: 40.3 ± 16.6 nM
IR
  IC50: 235 nM
A549 (EGFR^WT) cells; A549, 72 h
  IC50: […]
[1]; improved from 10.2
  PFS (progression-free survival): 18.9 months
BaF3-EGFR ^L858R
  IC50: 24 ± 25 nM

## COc1cc2ncnc(Nc3ccc(F)c(Cl)c3)c2cc1OCCCN1CCOCC1 [Gefitinib]
[1]
  median progression-free survival (PFS): 13.1 months
